# Tests used:
# [1] = test system: ulcers (Psychosomatic Frustration, M. Bonfils); assay: Anti-ulcer action, psychosomatic frustration ulcers (M. Bonfils); assay type: in vivo, rats; conditions: oral
# ulcers (reserpine) = assay: Anti-ulcer action, reserpine-induced ulcers; assay type: in vivo, rats; conditions: intra-peritoneal
# From the text: Dose mg./Kg. Inhibition %
# Reserpine 5 Intra-peritoneal
# [2] = test system: different artificially invoked conditions; assay: Neurotropic, musculotropic, antihistaminic, anti-ulcer and healing activity in different artificially invoked conditions; assay type: in vivo; conditions: different artificially invoked conditions in mice, rats, Guinea pigs, rabbits and dogs
# [3] = test system: ulcers (Pyloric Ligature, M. Shay); assay: Anti-ulcer action, pyloric ligature ulcers (M. Shay); assay type: in vivo, rats
# ulcers (phenylbutazone) = assay: Anti-ulcer action, phenylbutazone-induced ulcers; assay type: in vivo, rats; conditions: oral
Structure (SMILES),Inhibition % ([1]; 5 mg./Kg.) [%],Inhibition % ([1]; 10 mg./Kg.) [%],Inhibition % ([1]; 50 mg./Kg.) [%],Inhibition % (ulcers (reserpine); 5 mg./Kg.) [%],Inhibition % (ulcers (reserpine); 10 mg./Kg.) [%],Inhibition % (ulcers (reserpine); 25 mg./Kg.) [%],"activity as neurotropic, musculotropic antihistaminic, anti-ulcer and healing agents [2]","Inhibition % ([3]; 2.5 mg./Kg., intra-dermal) [%]","Inhibition % ([3]; 5 mg./Kg., intra-dermal) [%]","Inhibition % ([3]; 5 mg./Kg., intra-peritoneal) [%]","Inhibition % ([3]; 10 mg./Kg., intra-dermal) [%]","Inhibition % ([3]; 10 mg./Kg., intra-peritoneal) [%]",Inhibition % (ulcers (phenylbutazone); 5 mg./Kg.) [%],Inhibition % (ulcers (phenylbutazone); 10 mg./Kg.) [%],Inhibition % ([1]; 20 mg./Kg.) [%],"Inhibition % ([3]; 2.5 mg./Kg., intra-peritoneal) [%]","Inhibition % ([3]; 15 mg./Kg., intra-peritoneal) [%]","Inhibition % ([3]; 25 mg./Kg., intra-peritoneal) [%]"
"CC1(C(=O)OCC2CCC[N+]2(C)C)CCC2(C)CCC3(C)C(=CC(=O)C4C5(C)CCC(O)C(C)(C)C5CCC43C)C2C1 (centres unmarked) [Example 4, 2(glycyrrhetinoyl methyl) N-methylpyrrolidine methylbromide]",52,43,25,8,47,13,outstanding activity,27,29,65,24,55,22,23,,,,
"CC1(C(=O)OCC2CCC[N+]2(C)C)CCC2(C)CCC3(C)C(=CC(=O)C4C5(C)CCC(O)C(C)(C)C5CCC43C)C2C1 (centres unmarked) [Example 3, 2-(glycyrrhetinoylmethyl) N-methyl pyrrolidine methylsulfate]",42,33,,42,25,25,outstanding activity,,36,,,69,,,18,52,48,69
